The values that follow come from patent US9687467B2, “Diagnosis and treatment of taxane-resistant cancers” (Children's Medical Center Corporation, priority 2011, dated 2017).

One test concerns T20.2 cells. The test can be described thus: cells. It counts as cell-based. Conditions: Homo sapiens. How it is done: (FIG. 7A). The parental A549 cells, a cell line that became refractory during in vivo treatment with paclitaxel (T20.2 round 1) and the same cell line established after yet another round of in vivo paclitaxel treatment (T20.2 reinjection) were treated with paclitaxel and cell viability was assessed using the MTT assay. Represented are average LC50±s.e.m. determined by MTT assay for parental A549 cells (white boxes), **P<0.001, *P<0.05 as determined by Wilcoxon's rank sum test for T20.2 round 1 cells (hatched boxes) and for T20.2 re-injection cells (filled boxes). (FIG. 7B) The expression of miR-135a was examined in these cells by qRT-PCR. *P<0.05 as determined by Wilcoxon's rank sum test. […] The correlation between paclitaxel response and miR-135a expression was calculated using the Spearman's rank test. […] Subsequently, cells were treated with the indicated concentrations of paclitaxel and cell viability was assessed using the MTT assay. […]
Approximately 4×10^6 human A549 NSCLC cells were resuspended in 50% Matrigel (BD Biosciences, Bedford, Mass.) and injected subcutaneously into the hind flanks of 8-wk old male athymic (nu/nu) nude mice (Taconic Farms, Inc., Hudson, N.Y.). […] Tumor size was determined by digital caliper measurements (length and width in mm), and tumor volume (mm^3) was estimated using the formula (length×width^2)/2. […]

For another test, the system named is A549 control cells. The test can be described thus: Xenograft of A549 control cells, paclitaxel treatment. It counts as in vivo, nude mice. Particulars: paclitaxel three times a week for 3 weeks; P<0.001. How it is done:
A549 cells stably expressing either non-targeting premiR (A549-control) or premiR-135a (A549-miR-135a) were generated. (FIG. 8A) miR-135a expression level in A549-control and -miR-135a was determined and compared with A549 and A549TR cells using qRT-PCR analysis. *P<0.01. (FIG. 8B) Paclitaxel response of A549-control and A549-premiR-135a cells was determined using the MTT assay. (FIG. 8C) APC protein expression was examined using western blot analysis in A549-control and -premiR-135a cells. (FIG. 8D) A549-control and -premiR-135a cells were inoculated subcutaneously into the flanks of nude mice. Paclitaxel treatment was given three times a week for 3 weeks. The tumor size in each group was measured during the course of treatment and was calculated, relative to the size before treatment initiation. Each curve represents the average tumor growth±s.e.m. for 10 mice per group. **P<0.001 as determined by Wilcoxon's rank sum test.
The inventors subsequently investigated the role of miR-135a in paclitaxel sensitivity in vivo. […] As expected, miR-135a […] attenuated paclitaxel-induced cell death (FIG. 8B) and APC protein expression (FIG. 8C) relative to control transfected A549 cells in vitro. […] Paclitaxel treatment was given three times a week for 3 weeks, and tumor size in each group was monitored during the course of treatment. […]

Where two headings read alike, the source gives them in different places.

`CC(=O)O[C@H]1C(=O)[C@@]2(C)[C@H]([C@H](OC(=O)c3ccccc3)[C@]3(O)C[C@H](OC(=O)[C@H](O)[C@@H](NC(=O)c4ccccc4)c4ccccc4)C(C)=C1C3(C)C)[C@]1(OC(C)=O)CO[C@@H]1C[C@@H]2O` [paclitaxel]: the CC50 with T20.2 cells (read-out: median LC50, after one in vivo passage (T20.2 round 1), MTT, P=0.030) is 0.0133 µM; with T20.2 cells (read-out: median LC50, after re-injection (T20.2 reinjection), MTT, P=0.008) it was 0.127 µM. Moreover, in the test with A549 control cells, the “reduction of relative tumor burden at the end of the experiment” value came out at 5 fold.
